Read-outs that look alike come from different tables or passages of the source.
Columns and labels:
DHFR-TS = DHFR-TS (Leishmania major, UniProt P07382); assay: biochemical; details: competing free ligand 100 μM; bead = immobilized compound of the row; L. major lysate; read-out: % Inhibition of protein binding to bead, DHFR-TS, L. major
PTR1 [1] = molecular target: T1, PTR1 (Leishmania major, UniProt Q01782); assay: biochemical; details: competing free ligand 100 μM; bead = immobilized compound of the row; L. major lysate; read-out: % Inhibition of protein binding to bead, PTR-1, L. major
T1 sequence (Q01782 1-288): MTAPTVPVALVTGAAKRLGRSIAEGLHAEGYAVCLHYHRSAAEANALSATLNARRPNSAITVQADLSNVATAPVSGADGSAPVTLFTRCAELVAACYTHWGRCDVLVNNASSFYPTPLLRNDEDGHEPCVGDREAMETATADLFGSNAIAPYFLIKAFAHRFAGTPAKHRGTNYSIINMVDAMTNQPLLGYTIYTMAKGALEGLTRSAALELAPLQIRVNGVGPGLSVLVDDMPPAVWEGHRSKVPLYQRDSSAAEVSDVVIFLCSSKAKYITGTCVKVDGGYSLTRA

TB927.8.6460 = assay: Multitargeted bead mixture competition; assay type: binding, T. brucei; details: for fold change: CONSERVED, vehicle control = 1
[2] = molecular target: T. brucei lysate proteins (Trypanosoma brucei brucei, UniProt P38973); assay type: binding; details: protein TB427.10.1070 CELL DIVISION PROTEIN KINASE 2 HOMOLOG 1 (CRK1)
Chain of T. brucei lysate proteins (Trypanosoma brucei brucei, UniProt P38973) (P38973 whole entry): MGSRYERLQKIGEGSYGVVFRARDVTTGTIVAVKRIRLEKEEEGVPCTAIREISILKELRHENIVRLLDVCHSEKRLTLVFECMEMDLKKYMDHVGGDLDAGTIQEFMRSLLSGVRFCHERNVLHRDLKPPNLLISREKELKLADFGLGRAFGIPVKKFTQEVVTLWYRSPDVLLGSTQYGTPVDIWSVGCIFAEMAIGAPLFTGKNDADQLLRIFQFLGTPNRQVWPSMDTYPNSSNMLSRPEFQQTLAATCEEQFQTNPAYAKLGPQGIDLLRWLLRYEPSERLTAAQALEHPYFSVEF

[3] = molecular target: T2, HeLa cell extract proteins (Homo sapiens, UniProt Q06323); assay type: binding; details: HeLa; protein PSME1
T2 construct: endogenous in cells; host or cells: HeLa cell extract
T2 sequence (Q06323 whole entry): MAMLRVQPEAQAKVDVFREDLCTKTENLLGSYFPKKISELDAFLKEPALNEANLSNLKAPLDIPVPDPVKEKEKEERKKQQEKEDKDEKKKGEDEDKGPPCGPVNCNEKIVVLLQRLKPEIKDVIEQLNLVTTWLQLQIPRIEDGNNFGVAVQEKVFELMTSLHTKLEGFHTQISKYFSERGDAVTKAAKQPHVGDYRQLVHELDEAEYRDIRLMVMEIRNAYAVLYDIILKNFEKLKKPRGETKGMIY

[4] = molecular target: T3, HeLa cell extract proteins (Homo sapiens, UniProt Q15233); assay type: binding; details: protein NONO; HeLa
T3 construct: endogenous in cells; host or cells: HeLa cell extract
T3 sequence (Q15233 1-471): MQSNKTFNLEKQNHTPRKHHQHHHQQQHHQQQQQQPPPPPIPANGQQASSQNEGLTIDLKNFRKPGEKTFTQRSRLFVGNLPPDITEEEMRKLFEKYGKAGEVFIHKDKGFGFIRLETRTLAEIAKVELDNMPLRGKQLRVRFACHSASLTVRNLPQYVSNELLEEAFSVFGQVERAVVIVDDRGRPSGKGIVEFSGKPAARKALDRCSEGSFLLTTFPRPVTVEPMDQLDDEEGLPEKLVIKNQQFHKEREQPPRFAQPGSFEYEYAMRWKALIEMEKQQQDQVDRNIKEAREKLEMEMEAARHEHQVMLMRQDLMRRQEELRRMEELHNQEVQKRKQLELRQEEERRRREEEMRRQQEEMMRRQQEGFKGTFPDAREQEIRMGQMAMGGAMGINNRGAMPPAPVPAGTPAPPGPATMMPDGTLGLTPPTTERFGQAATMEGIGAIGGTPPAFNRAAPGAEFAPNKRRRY

PTR1 [5] = molecular target: T1, PTR1; assay type: binding; design: endogenous in cells; host or cells: L. major Friedlin promastigote lysate
[6] = molecular target: T. brucei lysate proteins (Trypanosoma brucei brucei, UniProt P07752); assay type: binding
Chain of T. brucei lysate proteins (Trypanosoma brucei brucei, UniProt P07752) (P07752 whole entry): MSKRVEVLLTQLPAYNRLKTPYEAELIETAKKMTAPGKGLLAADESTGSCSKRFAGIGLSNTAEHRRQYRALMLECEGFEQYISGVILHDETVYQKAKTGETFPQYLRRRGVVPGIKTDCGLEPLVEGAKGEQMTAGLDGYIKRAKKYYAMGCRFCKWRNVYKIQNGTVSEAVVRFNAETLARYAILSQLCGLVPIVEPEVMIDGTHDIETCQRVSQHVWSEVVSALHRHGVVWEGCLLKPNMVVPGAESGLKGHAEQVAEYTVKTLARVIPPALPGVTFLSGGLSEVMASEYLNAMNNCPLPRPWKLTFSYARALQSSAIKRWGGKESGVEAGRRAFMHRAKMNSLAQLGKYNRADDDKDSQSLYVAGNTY

[7] = molecular target: T. brucei lysate proteins (Trypanosoma brucei brucei, UniProt P12861); assay type: binding
Chain of T. brucei lysate proteins (Trypanosoma brucei brucei, UniProt P12861) (P12861 whole entry): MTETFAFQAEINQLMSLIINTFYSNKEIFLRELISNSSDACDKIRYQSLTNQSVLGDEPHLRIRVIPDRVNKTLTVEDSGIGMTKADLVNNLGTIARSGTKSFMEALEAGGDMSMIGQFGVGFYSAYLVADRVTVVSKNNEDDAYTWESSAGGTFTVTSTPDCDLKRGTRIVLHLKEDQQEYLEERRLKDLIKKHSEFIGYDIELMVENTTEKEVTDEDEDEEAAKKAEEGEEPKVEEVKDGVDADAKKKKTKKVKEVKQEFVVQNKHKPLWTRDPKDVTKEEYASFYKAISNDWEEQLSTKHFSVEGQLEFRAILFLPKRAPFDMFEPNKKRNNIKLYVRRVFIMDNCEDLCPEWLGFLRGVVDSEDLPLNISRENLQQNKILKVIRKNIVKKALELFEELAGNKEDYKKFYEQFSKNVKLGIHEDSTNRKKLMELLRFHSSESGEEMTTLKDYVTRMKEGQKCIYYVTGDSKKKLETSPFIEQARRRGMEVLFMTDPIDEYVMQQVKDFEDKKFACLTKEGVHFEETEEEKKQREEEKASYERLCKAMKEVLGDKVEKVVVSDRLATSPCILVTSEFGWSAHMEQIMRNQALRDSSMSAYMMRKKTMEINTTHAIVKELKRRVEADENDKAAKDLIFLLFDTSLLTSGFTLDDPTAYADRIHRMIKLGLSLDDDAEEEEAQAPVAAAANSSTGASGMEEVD

[8] = molecular target: T. brucei lysate proteins (Trypanosoma brucei brucei, UniProt P13377); assay type: binding
Chain of T. brucei lysate proteins (Trypanosoma brucei brucei, UniProt P13377) (P13377 whole entry): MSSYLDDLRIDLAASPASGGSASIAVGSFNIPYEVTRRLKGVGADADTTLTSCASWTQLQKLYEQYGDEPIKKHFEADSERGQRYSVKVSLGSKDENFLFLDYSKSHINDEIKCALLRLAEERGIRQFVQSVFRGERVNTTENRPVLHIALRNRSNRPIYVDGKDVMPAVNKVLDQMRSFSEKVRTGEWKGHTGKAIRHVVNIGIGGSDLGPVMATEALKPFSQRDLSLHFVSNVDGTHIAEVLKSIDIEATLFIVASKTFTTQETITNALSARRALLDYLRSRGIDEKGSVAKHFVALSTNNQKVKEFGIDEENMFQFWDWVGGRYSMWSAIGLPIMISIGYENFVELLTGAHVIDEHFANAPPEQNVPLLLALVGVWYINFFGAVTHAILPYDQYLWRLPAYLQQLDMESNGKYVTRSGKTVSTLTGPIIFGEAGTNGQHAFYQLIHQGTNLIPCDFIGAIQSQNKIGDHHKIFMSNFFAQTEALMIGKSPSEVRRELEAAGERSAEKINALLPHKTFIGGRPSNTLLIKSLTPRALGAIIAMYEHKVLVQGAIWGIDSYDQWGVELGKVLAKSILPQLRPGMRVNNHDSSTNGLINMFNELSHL

[9] = molecular target: T. brucei lysate proteins (Trypanosoma brucei brucei, UniProt Q04933); assay type: binding
Chain of T. brucei lysate proteins (Trypanosoma brucei brucei, UniProt Q04933) (Q04933 whole entry): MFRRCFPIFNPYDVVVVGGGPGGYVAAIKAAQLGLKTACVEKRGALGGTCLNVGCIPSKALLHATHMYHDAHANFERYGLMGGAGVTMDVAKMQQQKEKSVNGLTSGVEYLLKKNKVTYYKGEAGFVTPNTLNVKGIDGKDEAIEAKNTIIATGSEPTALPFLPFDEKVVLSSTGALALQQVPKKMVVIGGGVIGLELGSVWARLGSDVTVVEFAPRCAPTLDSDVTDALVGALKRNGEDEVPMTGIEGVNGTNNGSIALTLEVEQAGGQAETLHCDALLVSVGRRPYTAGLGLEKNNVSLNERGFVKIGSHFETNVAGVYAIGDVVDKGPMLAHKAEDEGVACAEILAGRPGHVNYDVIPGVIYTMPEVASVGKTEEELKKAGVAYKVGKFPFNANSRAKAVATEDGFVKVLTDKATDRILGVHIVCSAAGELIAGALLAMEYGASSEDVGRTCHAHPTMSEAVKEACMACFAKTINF

[10] = molecular target: T4, HeLa cell extract proteins (Homo sapiens, UniProt P51570); assay type: binding
T4 construct: endogenous in cells; host or cells: HeLa cell extract
T4 sequence (P51570 whole entry): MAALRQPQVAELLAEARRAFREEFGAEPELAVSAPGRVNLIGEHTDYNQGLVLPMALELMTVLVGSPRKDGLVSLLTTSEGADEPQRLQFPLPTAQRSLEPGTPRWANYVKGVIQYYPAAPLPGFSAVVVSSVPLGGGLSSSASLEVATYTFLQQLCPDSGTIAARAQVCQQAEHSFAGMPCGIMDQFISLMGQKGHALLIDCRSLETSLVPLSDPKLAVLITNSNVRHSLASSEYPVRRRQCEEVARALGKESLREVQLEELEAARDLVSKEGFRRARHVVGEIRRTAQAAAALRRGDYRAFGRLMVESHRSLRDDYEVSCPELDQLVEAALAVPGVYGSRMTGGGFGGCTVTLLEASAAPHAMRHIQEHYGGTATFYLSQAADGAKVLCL

[11] = molecular target: T5, HeLa cell extract proteins (Homo sapiens, UniProt Q01469); assay type: binding
T5 construct: endogenous in cells; host or cells: HeLa cell extract
T5 sequence (Q01469 whole entry): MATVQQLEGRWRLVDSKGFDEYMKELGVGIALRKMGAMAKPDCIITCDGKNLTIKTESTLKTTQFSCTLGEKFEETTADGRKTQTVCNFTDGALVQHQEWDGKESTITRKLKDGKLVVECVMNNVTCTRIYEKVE

[12] = molecular target: T6, HeLa cell extract proteins (Homo sapiens, UniProt Q96QU8); assay type: binding
T6 construct: endogenous in cells; host or cells: HeLa cell extract
T6 sequence (Q96QU8 1-1125): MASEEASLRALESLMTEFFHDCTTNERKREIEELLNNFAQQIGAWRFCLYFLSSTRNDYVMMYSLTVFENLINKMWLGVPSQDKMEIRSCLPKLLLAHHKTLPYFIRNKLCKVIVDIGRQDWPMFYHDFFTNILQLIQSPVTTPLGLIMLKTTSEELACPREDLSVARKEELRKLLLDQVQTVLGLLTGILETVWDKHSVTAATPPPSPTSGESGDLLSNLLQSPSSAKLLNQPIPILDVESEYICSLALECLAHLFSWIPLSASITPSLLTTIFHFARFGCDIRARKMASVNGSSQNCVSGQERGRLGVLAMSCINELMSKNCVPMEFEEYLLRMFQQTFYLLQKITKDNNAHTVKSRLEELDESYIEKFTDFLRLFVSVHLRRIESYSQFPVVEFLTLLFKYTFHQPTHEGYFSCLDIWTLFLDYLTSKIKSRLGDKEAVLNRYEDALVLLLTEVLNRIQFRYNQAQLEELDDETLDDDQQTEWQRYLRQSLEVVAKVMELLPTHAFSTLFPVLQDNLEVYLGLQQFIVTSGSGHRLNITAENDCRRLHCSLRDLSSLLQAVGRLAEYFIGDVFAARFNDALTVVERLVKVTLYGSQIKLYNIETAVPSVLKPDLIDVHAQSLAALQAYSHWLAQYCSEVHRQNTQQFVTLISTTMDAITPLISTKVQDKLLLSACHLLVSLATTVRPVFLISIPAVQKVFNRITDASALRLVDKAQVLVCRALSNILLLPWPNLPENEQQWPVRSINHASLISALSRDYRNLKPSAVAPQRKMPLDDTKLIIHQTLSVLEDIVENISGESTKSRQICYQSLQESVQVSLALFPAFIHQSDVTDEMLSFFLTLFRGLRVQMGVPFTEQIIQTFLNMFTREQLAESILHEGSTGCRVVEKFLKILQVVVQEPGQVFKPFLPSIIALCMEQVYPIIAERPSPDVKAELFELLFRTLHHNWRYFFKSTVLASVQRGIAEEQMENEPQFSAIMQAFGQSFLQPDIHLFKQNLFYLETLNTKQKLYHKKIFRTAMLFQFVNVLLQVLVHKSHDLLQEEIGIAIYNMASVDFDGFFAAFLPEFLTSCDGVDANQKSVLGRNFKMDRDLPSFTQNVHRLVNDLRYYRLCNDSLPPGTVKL

[13] = LMJF.23.0270 PTERIDINE REDUCTASE 1, vehicle control = 1
[14] = protein TB927.10.5620 FRUCTOSE-BI[…], GLYCOSOMAL, vehicle control = 1
[15] = protein TB427.10.10980 HEAT SHOCK PROTEIN 83, vehicle control = 1
[16] = protein TB427.01.3830 GLUCOSE-6-PHOSPHATE ISOMERASE, GLYCOSOMAL, vehicle control = 1
[17] = protein TB427TMP.01.8470 DIHYDROLIPOYL DEHYDROGENASE, vehicle control = 1
[18] = HeLa, protein GALK1 (CDNA FLJ56840, HIGHLY SIMILAR TO GALACTOKINASE)
[19] = vs vehicle control, protein LMJF.23.0270 PTERIDINE REDUCTASE 1

Chain of DHFR-TS (P07382 whole entry): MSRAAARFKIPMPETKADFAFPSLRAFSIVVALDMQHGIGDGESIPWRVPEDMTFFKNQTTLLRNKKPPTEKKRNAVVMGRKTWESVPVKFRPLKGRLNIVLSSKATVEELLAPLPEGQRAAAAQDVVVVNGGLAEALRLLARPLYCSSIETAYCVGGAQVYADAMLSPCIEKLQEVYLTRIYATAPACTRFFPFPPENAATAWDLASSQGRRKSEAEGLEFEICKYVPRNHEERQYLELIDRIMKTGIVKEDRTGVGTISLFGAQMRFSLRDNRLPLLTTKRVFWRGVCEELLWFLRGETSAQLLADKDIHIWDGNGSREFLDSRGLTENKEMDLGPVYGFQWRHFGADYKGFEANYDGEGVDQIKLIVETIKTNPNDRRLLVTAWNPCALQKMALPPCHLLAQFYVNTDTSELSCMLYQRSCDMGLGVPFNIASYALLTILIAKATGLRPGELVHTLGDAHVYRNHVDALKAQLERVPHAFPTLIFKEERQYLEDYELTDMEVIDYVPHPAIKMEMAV

SMILES | inhibition at 100 µM (DHFR-TS) [%] | inhibition at 100 µM (PTR1 [1]) [%] | fold change - vehicle control [2] | fold changes relative to vehicle control [3] | fold changes relative to vehicle control [4] | fold change (PTR1 [5]; [13]) | fold change (TB927.8.6460; protein TB927.8.6460 HY[…]) | fold change vs vehicle control [6, 14] | fold change vs vehicle control [7, 15] | fold change vs vehicle control [8, 16] | fold change vs vehicle control [9, 17] | fold changes relative to vehicle control [10, 18] | fold changes relative to vehicle control ([11]; protein FABP5, HeLa) | fold changes relative to vehicle control ([12]; HeLa, protein XPO6) | fold change (PTR1 [5]; [19]) | other results
Nc1nc2cccc(-c3ccccc3)c2n1Cc1ccc(Cl)c(Cl)c1 [compound 3] | < 50 | < 50 | 0.91 | 1.04 | 0.92 | 0.99 |  |  |  |  |  |  |  |  |  | percentage of competition from bead binding (TB927.8.6460; multitargeted bead mixture, free ligand 100 μM, T. brucei lysate, TB927.8.6460): 15%; competition for PTR1 (Figure 8a) (PTR1 [5]; bead mixture, L. major lysate): no inhibition of PTR1
CCCCCCOc1ccc(Cc2cnc(N)nc2N)cc1 [compound 1] | < 50 | < 50 | 0.76 | 0.97 | 0.97 | 1.1 |  |  |  |  |  |  |  |  |  | 
NCCCNc1ccc(C(=O)NC(CCC(=O)O)C(=O)O)cc1 (centres unmarked) [compound 7] |  |  |  |  |  |  | 1.04 | 1.08 | 1 | 0.88 | 1.05 | 1.2 | 1.1 | 1.08 | 1.02 | 
CCCCCCOc1cccc(Cc2cnc(N)nc2N)c1 [compound 2] | < 50 | < 50 | 0.86 | 1.35 | 1.67 | 1.13 |  |  |  |  |  |  |  |  |  | 
NCCOCCOCC(=O)Nc1nc2ncc(CNc3ccc(C(=O)NC(CCC(=O)O)C(=O)O)cc3)nc2c(=O)[nH]1 (centres unmarked) [compound 6] |  |  |  |  |  |  | 1.03 | 1.2 | 1.41 | 0.98 | 0.97 | 1.12 | 1.3 | 1.09 | 0.98 | 
Nc1nc2[nH]cc(CCc3ccc(C(=O)N[C@@H](CCC(=O)O)C(=O)O)cc3)c2c(=O)[nH]1 [PTX, pemetrexed] |  |  |  |  |  |  | 0.66 |  |  |  |  |  |  |  |  | fold change vs vehicle control [6]: 1.11; fold change vs vehicle control [7]: 0.76; fold change vs vehicle control [8]: 0.85; fold change vs vehicle control [9]: 0.97; fold changes relative to vehicle control [10]: 1.27; fold changes relative to vehicle control [11]: 1.45; fold changes relative to vehicle control [12]: 0.98; fold change (PTR1 [5]): 0.52
Nc1nc2c(c(=O)[nH]1)N(C=O)C(CNc1ccc(C(=O)N[C@@H](CCC(=O)O)C(=O)O)cc1)CN2 (some centres unmarked) [LEU, leucovorin] |  |  |  |  |  |  |  | 1.22 | 1.64 | 1.22 | 0.93 | 1.18 | 1 | 0.99 | 1.04 | fold change (TB927.8.6460; protein TB927.8.6460 HYPOTHETICAL PROTEIN): 0.84
